Tests used:
ATR (human) = ATR (human) (UniProt Q13535); test: Alphascreen
MET (human) = MET (human) (UniProt P08581); test: SelectScreen, TR FRET; details: compound 5.0 µM
PAK6 (human) = PAK6 (human) (UniProt Q9NQU5); test: SelectScreen, TR FRET; details: compound 5.0 µM
JAK2 JH1 JH2 (human) = JAK2 JH1 JH2 (human) (UniProt O60674); test: SelectScreen, TR FRET; details: compound 5.0 µM
EPHB2 (human) = EPHB2 (human) (UniProt P29323); test: SelectScreen, TR FRET; details: compound 5.0 µM
NTRK1 (human) = NTRK1 (human) (UniProt P04629); test: SelectScreen, TR FRET; details: compound 5.0 µM
PRKG2 (human) = PRKG2 (human) (UniProt Q13237); test: SelectScreen, TR FRET; details: compound 5.0 µM
Sequence of PRKG2 (human) (Q13237 whole entry, looked up): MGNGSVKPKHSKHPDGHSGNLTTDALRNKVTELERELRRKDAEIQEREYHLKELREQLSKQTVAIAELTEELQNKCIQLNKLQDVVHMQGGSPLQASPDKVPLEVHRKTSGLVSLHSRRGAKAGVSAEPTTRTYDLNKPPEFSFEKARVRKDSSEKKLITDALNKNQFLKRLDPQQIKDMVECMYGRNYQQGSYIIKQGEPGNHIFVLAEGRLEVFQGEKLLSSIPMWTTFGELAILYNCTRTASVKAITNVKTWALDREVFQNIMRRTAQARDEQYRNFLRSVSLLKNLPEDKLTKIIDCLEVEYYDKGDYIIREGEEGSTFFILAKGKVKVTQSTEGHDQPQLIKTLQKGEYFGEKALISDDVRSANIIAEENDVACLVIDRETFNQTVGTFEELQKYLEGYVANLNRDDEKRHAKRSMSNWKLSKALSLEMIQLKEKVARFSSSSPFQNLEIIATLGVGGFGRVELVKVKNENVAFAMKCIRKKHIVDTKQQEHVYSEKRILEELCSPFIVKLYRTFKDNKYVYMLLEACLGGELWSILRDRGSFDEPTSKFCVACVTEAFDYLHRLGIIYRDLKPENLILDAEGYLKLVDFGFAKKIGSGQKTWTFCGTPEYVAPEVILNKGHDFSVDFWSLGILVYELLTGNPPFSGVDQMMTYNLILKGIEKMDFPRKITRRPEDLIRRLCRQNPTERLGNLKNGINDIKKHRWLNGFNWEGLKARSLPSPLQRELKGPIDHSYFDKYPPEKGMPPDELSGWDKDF

RPS6KA1 KD1 KD2 (human) = RPS6KA1 KD1 KD2 (human) (UniProt Q15418); test: SelectScreen, TR FRET; details: compound 5.0 µM
CSNK1G1 (human) = CSNK1G1 (human) (UniProt Q9HCP0); test: SelectScreen, TR FRET; details: compound 5.0 µM
PIM2 (human) = PIM2 (human) (UniProt Q9P1W9); test: SelectScreen, TR FRET; details: compound 5.0 µM
CSK (human) = CSK (human) (UniProt P41240); test: SelectScreen, TR FRET; details: compound 5.0 µM
RPS6KA5 KD1 KD2 (human) = RPS6KA5 KD1 KD2 (human) (UniProt O75582); test: SelectScreen, TR FRET; details: compound 5.0 µM
FYN (human) = FYN (human) (UniProt P06241); test: SelectScreen, TR FRET; details: compound 5.0 µM
PIM1 (human) = PIM1 (human) (UniProt P11309); test: SelectScreen, TR FRET; details: compound 5.0 µM
PRKCG (human) = PRKCG (human) (UniProt P05129); test: SelectScreen, TR FRET; details: compound 5.0 µM
PRKCZ (human) = PRKCZ (human) (UniProt Q05513); test: SelectScreen, TR FRET; details: compound 5.0 µM
EPHA5 (human) = EPHA5 (human) (UniProt P54756); test: SelectScreen, TR FRET; details: compound 5.0 µM
NEK2 (human) = NEK2 (human) (UniProt P51955); test: SelectScreen, TR FRET; details: compound 5.0 µM
IGF1R (human) = IGF1R (human) (UniProt P08069); test: SelectScreen, TR FRET; details: compound 5.0 µM
STK25 (human) = STK25 (human) (UniProt O00506); test: SelectScreen, TR FRET; details: compound 5.0 µM
INSRR (human) = INSRR (human) (UniProt P14616); test: SelectScreen, TR FRET; details: compound 5.0 µM
EPHA1 (human) = EPHA1 (human) (UniProt P21709); test: SelectScreen, TR FRET; details: compound 5.0 µM
TYRO3 (human) = TYRO3 (human) (UniProt Q06418); test: SelectScreen, TR FRET; details: compound 5.0 µM
ITK (human) = ITK (human) (UniProt Q08881); test: SelectScreen, TR FRET; details: compound 5.0 µM
EGFR (human) = EGFR (human) (UniProt P00533); test: SelectScreen, TR FRET; details: compound 5.0 µM
FES (human) = FES (human) (UniProt P07332); test: SelectScreen, TR FRET; details: compound 5.0 µM
LCK (human) = LCK (human) (UniProt P06239); test: SelectScreen, TR FRET; details: compound 5.0 µM
Sequence of LCK (human) (P06239 whole entry, looked up): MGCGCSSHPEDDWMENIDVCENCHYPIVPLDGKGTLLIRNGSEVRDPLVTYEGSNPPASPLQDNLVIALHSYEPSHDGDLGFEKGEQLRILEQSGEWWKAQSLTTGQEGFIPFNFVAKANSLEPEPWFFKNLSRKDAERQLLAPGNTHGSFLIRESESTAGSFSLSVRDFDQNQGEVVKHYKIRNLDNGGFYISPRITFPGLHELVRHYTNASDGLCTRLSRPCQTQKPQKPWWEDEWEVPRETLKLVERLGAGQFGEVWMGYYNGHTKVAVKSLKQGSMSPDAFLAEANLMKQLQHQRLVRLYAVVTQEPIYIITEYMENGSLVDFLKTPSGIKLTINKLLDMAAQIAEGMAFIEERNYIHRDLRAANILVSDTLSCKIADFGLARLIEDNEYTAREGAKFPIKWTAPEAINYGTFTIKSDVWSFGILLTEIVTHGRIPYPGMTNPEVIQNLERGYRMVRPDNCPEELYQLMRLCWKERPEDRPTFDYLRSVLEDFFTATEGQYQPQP

FLT4 (human) = FLT4 (human) (UniProt P35916); test: SelectScreen, TR FRET; details: compound 5.0 µM
CSNK1D (human) = CSNK1D (human) (UniProt P48730); test: SelectScreen, TR FRET; details: compound 5.0 µM
TSSK2 (human) = TSSK2 (human) (UniProt Q96PF2); test: SelectScreen, TR FRET; details: compound 5.0 µM
EPHA8 (human) = EPHA8 (human) (UniProt P29322); test: SelectScreen, TR FRET; details: compound 5.0 µM
EPHB4 (human) = EPHB4 (human) (UniProt P54760); test: SelectScreen, TR FRET; details: compound 5.0 µM
TSSK1B (human) = TSSK1B (human) (UniProt Q9BXA7); test: SelectScreen, TR FRET; details: compound 5.0 µM
[1] = system: PDGFRA (human), P16234 [T674I]; test: SelectScreen, TR FRET; details: compound 5.0 µM
FGR (human) = FGR (human) (UniProt P09769); test: SelectScreen, TR FRET; details: compound 5.0 µM
CAMK2D (human) = CAMK2D (human) (UniProt Q13557); test: SelectScreen, TR FRET; details: compound 5.0 µM
PRKCB2 (human) = PRKCB2 (human) (UniProt P05771); test: SelectScreen, TR FRET; details: compound 5.0 µM
Sequence of PRKCB2 (human) (P05771 whole entry, looked up): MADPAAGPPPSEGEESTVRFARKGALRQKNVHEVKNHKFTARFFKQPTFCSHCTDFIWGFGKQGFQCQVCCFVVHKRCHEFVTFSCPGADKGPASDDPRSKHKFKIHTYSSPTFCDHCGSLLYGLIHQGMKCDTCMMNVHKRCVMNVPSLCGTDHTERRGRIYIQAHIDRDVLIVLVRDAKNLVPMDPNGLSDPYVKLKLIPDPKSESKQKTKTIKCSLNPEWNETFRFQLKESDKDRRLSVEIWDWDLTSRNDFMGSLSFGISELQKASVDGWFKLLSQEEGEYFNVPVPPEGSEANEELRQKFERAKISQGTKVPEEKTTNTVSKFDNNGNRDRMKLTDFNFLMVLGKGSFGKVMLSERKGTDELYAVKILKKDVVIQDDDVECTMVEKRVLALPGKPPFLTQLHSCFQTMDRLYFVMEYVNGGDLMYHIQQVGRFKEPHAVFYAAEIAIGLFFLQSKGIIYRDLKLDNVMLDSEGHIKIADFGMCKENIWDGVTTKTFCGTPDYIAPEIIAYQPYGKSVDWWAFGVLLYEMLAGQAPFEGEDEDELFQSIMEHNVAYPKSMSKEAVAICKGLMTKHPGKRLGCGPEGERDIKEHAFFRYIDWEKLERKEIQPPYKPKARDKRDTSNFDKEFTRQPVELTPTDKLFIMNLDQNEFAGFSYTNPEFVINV

PRKCH (human) = PRKCH (human) (UniProt P24723); test: SelectScreen, TR FRET; details: compound 5.0 µM
CLK2 (human) = CLK2 (human) (UniProt P49760); test: SelectScreen, TR FRET; details: compound 5.0 µM
Sequence of CLK2 (human) (P49760 whole entry, looked up): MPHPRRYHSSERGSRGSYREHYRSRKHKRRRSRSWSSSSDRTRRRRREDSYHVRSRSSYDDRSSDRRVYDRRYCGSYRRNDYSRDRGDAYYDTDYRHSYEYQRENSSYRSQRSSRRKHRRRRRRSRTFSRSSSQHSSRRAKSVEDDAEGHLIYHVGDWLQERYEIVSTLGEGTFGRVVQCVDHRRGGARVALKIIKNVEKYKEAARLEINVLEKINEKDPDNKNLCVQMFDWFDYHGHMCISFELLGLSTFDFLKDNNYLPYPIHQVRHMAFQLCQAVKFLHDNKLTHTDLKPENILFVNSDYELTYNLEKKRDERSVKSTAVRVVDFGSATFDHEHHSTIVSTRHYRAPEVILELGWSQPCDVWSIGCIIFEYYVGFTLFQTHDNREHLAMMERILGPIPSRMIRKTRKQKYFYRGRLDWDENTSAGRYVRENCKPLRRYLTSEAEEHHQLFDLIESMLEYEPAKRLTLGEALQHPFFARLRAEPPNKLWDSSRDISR

RPS6KA3 KD1 KD2 (human) = RPS6KA3 KD1 KD2 (human) (UniProt P51812); test: SelectScreen, TR FRET; details: compound 5.0 µM

Sequence of ATR (human) (Q13535 whole entry, looked up): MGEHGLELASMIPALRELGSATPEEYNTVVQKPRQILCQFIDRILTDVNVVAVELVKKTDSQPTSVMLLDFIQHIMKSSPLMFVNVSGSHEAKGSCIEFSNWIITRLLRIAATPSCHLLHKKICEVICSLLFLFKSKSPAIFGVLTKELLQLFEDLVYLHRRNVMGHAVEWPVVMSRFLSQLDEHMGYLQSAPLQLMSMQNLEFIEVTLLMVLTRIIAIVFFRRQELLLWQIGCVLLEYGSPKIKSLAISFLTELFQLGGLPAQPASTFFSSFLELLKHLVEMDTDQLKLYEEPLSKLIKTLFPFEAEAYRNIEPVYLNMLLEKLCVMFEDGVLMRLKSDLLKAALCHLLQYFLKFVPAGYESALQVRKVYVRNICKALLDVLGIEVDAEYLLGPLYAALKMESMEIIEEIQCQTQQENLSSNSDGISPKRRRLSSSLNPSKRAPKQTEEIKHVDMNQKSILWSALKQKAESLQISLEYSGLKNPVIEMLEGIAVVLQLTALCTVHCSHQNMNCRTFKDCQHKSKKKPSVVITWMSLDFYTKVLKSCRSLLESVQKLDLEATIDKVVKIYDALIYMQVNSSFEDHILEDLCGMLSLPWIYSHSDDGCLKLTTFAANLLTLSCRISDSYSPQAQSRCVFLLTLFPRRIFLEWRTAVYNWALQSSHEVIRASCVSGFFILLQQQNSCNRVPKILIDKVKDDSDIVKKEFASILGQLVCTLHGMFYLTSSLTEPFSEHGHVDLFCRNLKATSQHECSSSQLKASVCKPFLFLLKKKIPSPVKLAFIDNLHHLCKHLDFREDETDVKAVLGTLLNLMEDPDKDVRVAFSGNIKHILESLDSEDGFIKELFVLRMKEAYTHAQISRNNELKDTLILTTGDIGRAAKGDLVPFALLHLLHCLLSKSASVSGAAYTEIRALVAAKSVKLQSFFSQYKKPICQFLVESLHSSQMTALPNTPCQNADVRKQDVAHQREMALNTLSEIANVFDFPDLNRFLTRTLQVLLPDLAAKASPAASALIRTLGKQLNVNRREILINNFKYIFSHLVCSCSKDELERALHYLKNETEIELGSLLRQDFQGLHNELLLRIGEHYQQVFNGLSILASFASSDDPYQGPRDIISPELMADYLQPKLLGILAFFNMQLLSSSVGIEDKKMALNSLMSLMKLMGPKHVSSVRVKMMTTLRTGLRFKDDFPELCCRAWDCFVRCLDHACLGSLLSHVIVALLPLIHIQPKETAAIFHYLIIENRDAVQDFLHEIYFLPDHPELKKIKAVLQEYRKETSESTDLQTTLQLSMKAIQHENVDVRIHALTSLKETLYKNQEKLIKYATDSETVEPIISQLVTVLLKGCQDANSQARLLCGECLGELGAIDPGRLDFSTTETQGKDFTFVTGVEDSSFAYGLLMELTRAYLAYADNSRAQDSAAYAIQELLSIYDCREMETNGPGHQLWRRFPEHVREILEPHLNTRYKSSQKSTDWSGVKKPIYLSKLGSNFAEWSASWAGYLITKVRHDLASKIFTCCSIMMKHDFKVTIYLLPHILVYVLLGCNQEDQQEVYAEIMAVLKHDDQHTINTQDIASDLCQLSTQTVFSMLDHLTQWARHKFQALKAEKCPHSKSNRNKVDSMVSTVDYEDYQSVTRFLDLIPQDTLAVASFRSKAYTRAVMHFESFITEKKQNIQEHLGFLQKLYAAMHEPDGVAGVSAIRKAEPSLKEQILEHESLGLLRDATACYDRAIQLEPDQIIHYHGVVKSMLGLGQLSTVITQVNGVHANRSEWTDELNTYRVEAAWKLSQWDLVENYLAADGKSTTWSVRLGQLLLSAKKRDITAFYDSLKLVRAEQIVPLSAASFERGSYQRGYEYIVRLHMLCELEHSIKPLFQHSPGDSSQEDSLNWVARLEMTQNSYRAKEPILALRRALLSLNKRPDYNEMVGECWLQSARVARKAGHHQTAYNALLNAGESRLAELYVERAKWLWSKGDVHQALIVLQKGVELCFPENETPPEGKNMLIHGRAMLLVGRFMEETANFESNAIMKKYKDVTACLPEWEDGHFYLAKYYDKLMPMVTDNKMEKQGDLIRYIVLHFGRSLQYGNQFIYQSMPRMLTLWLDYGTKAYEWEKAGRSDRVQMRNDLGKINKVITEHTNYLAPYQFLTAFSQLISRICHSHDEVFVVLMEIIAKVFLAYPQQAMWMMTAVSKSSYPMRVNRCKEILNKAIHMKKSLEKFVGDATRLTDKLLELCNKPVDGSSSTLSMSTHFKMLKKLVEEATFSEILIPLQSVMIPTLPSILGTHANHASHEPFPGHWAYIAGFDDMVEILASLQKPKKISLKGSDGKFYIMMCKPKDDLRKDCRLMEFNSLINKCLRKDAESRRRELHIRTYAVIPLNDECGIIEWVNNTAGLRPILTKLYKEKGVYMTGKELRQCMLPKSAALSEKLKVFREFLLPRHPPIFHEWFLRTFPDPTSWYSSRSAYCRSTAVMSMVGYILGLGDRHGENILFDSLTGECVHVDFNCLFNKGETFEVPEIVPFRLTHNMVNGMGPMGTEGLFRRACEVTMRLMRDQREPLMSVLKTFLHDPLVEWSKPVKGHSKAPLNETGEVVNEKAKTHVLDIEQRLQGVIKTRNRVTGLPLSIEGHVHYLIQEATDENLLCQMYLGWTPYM

Compound: Nc1cc(C(F)(F)F)c(-c2cc(N3CCOCC3)nc(N3CCOCC3)n2)cn1
- IC50 (ATR (human)): 8.09 µM
- inhibition (MET (human)): 5%
- inhibition (PAK6 (human)): 0%
- inhibition (JAK2 JH1 JH2 (human)): 18%
- inhibition (EPHB2 (human)): 0%
- inhibition (NTRK1 (human)): 9%
- inhibition (PRKG2 (human)): 10%
- inhibition (RPS6KA1 KD1 KD2 (human)): 5%
- inhibition (CSNK1G1 (human)): 1%
- inhibition (PIM2 (human)): 3%
- inhibition (CSK (human)): 5%
- inhibition (RPS6KA5 KD1 KD2 (human)): 8%
- inhibition (FYN (human)): 9%
- inhibition (PIM1 (human)): 6%
- inhibition (PRKCG (human)): 5%
- inhibition (PRKCZ (human)): 2%
- inhibition (EPHA5 (human)): 0%
- inhibition (NEK2 (human)): 7%
- inhibition (IGF1R (human)): 1%
- inhibition (STK25 (human)): 6%
- inhibition (INSRR (human)): 3%
- inhibition (EPHA1 (human)): -2%
- inhibition (TYRO3 (human)): 3%
- inhibition (ITK (human)): 3%
- inhibition (EGFR (human)): 3%
- inhibition (FES (human)): 0%
- inhibition (LCK (human)): 7%
- inhibition (FLT4 (human)): 2%
- inhibition (CSNK1D (human)): 4%
- inhibition (TSSK2 (human)): -6%
- inhibition (EPHA8 (human)): 3%
- inhibition (EPHB4 (human)): -4%
- inhibition (TSSK1B (human)): -4%
- inhibition [1]: 11%
- inhibition (FGR (human)): 15%
- inhibition (CAMK2D (human)): 1%
- inhibition (PRKCB2 (human)): 8%
- inhibition (PRKCH (human)): 4%
- inhibition (CLK2 (human)): 15%
- inhibition (RPS6KA3 KD1 KD2 (human)): 2%

— the kinase profiling compilation of Christmann-Franck et al. (2016)
